Experimental findings from US9487494B2, “Cyclic hydrocarbon compounds for the treatment of diseases” (LEO PHARMA A/S, priority 2007, dated 2016) are described below.

pIC50: −log10 of the molar value.

The target in data set [1] is recombinant human P450 2D6 (Homo sapiens (Human), UniProt P10635). Description: Screening for P450 2D6 inhibition (fluorescent AMMC substrate). It is filed as in vitro ADME. The settings on record: recombinant human P450 CYP2D6, AMMC substrate, 30 min. On the procedure:
The assay rapidly screen for potential inhibitors of human P450 2D6 catalytic activity, by using recombinant human P450 2D6. The IC50 determination is performed in duplicate at eight concentrations.
Incubations were conducted in 96 well microtiter plates based on a method described by BD Biosciences. To the first well in each row, a NADPH regenerating system and test compound was added. In the second well and all remaining wells, NADPH regenerating system and acetonitrile (final concentration of 2%) was added. The final assay concentration of the NADPH regenerating system was 8.2 μM NADP^+, 0.41 mM glucose-6-phosphate, 0.41 mM magnesium chloride hexahydrate and 0.4 U/ml glucose-6-phosphate dehydrogenase and 0.01 mg/mL control insect cell membrane protein. The test compound solution was serially diluted 1:3 through the eighth wells.
The final concentration of the test compounds were in the range 100 μM to 45.7 nM in the eight rows. Wells 9 and 10 contained no test compound (only NADPH regenerating system and enzyme/substrate mix) and wells 11 and 12 were used as controls for background fluorescence (enzyme and substrate were added after the reaction was terminated). The plate was then pre-incubated at 37° C. for 10 min, and the reaction was initiated by the addition of pre-warmed enzyme/substrate mix. The assay concentration of the enzyme/substrate mix was 100 mM potassium phosphate, pH 7.4, 1.5 pmol recombinant human P450 CYP2D6 and 1.5 μM of the fluorescent substrate 3-[2-(N,N diethyl-N-methylamino)ethyl]-7-methoxy-4-methylcounnarin (AMMC). The assay was conducted in duplicate in a final volume of 200 μL per well. Reactions were terminated after 30 min by addition of a 4:1, acetonitrile:0.5 M Tris base solution. Quinidine was used as positive control, 0.5 μM as highest concentration. Fluorescence per well was measured using a fluorescence plate reader (excitation: 390 nm, emission: 460 nm). The IC50 values were calculated.

Data set [2] has as its system normal male Sprague Dawley rats. Description: In vivo test in normal rats (serum PTH and calcium). Set-up: species or system rat. To be noted: for PTH suppression / Suppression of Ca^2+: 1 mg/kg p.o., single dose, 2 hours after dosing, compared to vehicle-treated animals; for ED50: Rattus norvegicus, 2 h, oral single doses, blood two hours thereafter, normal rats, read-out: ED50 with respect to PTH suppression. On the procedure:
Various compounds were administered to normal male Sprague Dawley rats in order to examine the pharmacological effect on serum levels of total calcium and parathyroid hormone (PTH). The experiments were performed by orally administering a single dose of the respective compounds as compared to vehicle-treated animals or animals treated with the competitor compound Cinacalcet.
As a standard, a group of six animals were treated orally with 1 mg/kg of compound as a 1% methylcellulose suspension and two hours thereafter, blood was obtained by retro-orbital bleeding under anaesthesia and the serum calcium and PTH levels were measured.
In some instances, rats were treated orally with various doses of a given compound in 1% methylcellulose (six rats/dose) and blood was obtained by retro-orbital bleeding two hours thereafter. Using the software GraphPad Prism® 5, ED50 values for Cinacalcet, Compound 1056, Compound 1186, and Compound 1190 with respect to PTH suppression were calculated to be 0.9 mg/kg, 0.1 mg/kg, 0.04 mg/kg, and 0.002 mg/kg, respectively.
For some compounds, rats were bled at several time-points after oral administration (six rats/time point), and suppression of serum PTH levels was observed over time.

The subject of data set [3] is rat 5/6 nephrectomy model. Description: In vivo test using the 5/6 nephrectomy model in rats (secondary hyperparathyroidism). To be noted: 336 h, oral once daily for two weeks, 5/6 nephrectomized rats, read-out: ED50, PTH lowering effect. From the text:
The lowering effect of different compounds on serum PTH was examined in vivo in the rat 5/6 nephrectomy model which is a widely accepted animal model of secondary hyperparathyroidism.
Two-third of the rats' (Sprague Dawley, at least 8 weeks old) left kidney was surgically removed followed by removal of the right kidney one week later.
After disease initiation, blood was obtained by retro-orbital bleeding and urine was collected using metabolic cages. Serum PTH, calcium, phosphorus, albumin, creatinine, and BUN as well as urinary creatinine and albumin were measured. Rats were then stratified into different treatment groups (9-12 rats/group) based on the results obtained. One group of normal rats without surgery served as control (“control”) and one group of nephrectomized rats treated with vehicle (1% Methylcellulose) was used as another control (“5/6 NEPX”). All other groups were treated orally with test compound at various doses once daily for two weeks and the above mentioned parameters were monitored weekly.

recombinant human P450 2D6, sequence (P10635 whole entry): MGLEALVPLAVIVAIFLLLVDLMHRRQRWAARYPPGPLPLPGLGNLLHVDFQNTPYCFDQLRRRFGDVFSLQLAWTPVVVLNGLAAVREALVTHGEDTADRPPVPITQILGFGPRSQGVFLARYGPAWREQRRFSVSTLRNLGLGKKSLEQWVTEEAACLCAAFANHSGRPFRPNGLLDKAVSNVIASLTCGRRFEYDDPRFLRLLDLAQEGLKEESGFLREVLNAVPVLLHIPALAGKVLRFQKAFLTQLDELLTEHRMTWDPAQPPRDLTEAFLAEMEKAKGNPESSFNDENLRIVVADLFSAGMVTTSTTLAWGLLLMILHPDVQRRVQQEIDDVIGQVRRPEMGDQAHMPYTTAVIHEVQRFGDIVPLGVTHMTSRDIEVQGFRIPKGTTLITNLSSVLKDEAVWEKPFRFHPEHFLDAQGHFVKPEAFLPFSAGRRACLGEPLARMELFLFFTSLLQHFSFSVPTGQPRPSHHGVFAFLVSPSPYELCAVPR

On to `C[C@@H](NCCCc1cccc(C(F)(F)F)c1)c1cccc2ccccc12` [Cinacalcet, reference compound], for which the pIC50 in data set [1] was 7.30. Also, in data set [2], the PTH suppression was 48%, the “Suppression of Ca^2+” value is 5% and the ED50 amounted to 0.9 mg/kg. Besides, the ED50 in data set [3] is roughly 20 mg/kg.
Regarding `C[C@@H](N[C@H]1CCC[C@H](c2ccc(C(=O)NCC(=O)O)cc2)C1)c1cccc2ccccc12` [Compound 1115, {4-[(1S,3S)-3-((R)-1-Naphthalen-1-yl-ethylamino)-cyclohexyl]-benzoylamino}-acetic acid], the pIC50 in data set [1] was 4.89. For the same molecule, in data set [2], the PTH suppression was found to be 50% and the “Suppression of Ca^2+” value came to 3%.
For `C[C@@H](NC1CCC(c2ccc(OCC(=O)O)cc2)C1)c1cccc2ccccc12` (stereo partly drawn) [Compound 1188, {4-[3-((R)-1-Naphthalen-1-yl-ethylamino)-cyclopentyl]-phenoxy}-acetic acid], in data set [2], the PTH suppression worked out at 97% and the “Suppression of Ca^2+” value came out at 12%.
Turning to `C[C@@H](N[C@H]1CC[C@H](c2ccc(CCC(=O)O)cc2)C1)c1cccc2ccccc12.Cl` [Compound 1190, 3-{4-[(1S,3S)-3-((R)-1-Naphthalen-1-yl-ethylamino)-cyclopentyl]-phenyl}-propionic acid hydrochloride], the pIC50 in data set [1] was 4.10. For the same molecule, in data set [2], the PTH suppression stood at 93%, the “Suppression of Ca^2+” value was 18.5% and the ED50 is 0.002 mg/kg. In addition, in data set [3], the ED50 is roughly 0.01 mg/kg.
Regarding `C[C@@H](NC1CCCC(c2ccc(C(=O)O)cc2)C1)c1cccc2ccccc12` (stereo partly drawn) [Compound 1056, 4-[3-((R)-1-naphthalen-1-yl-ethylamino)-cyclohexyl]-benzoic acid], the pIC50 in data set [1] is 5.00. Moreover, in data set [2], the PTH suppression was 85%, the “Suppression of Ca^2+” value amounted to 1% and the ED50 came out at 0.1 mg/kg. The ED50 in data set [3] was roughly 2 mg/kg.
On to `C[C@@H](N[C@H]1CCC[C@H](c2ccc(C(=O)NCCC(=O)O)cc2)C1)c1cccc2ccccc12.Cl` [Compound 1136, 3-{4-[(1S,3S)-3-((R)-1-Naphthalen-1-yl-ethylamino)-cyclohexyl]-benzoylamino}-propionic acid hydrochloride], for which, in data set [1], the pIC50 was 5.00. Also, in data set [2], the PTH suppression was 61% and the “Suppression of Ca^2+” value is 7%.
For `C[C@@H](N[C@H]1CCC[C@H](c2ccc(C(=O)N3CC(C(=O)O)C3)cc2)C1)c1cccc2ccccc12` [Compound 1142, 1-{4-[(1S,3S)-3-((R)-1-Naphthalen-1-yl-ethylamino)-cyclohexyl]-benzoyl}-azetidine-3-carboxylic acid], the pIC50 in data set [1] is 4.60.
As for `C[C@@H](N[C@H]1CCC[C@H](c2ccc(C(=O)N3CCC(C(=O)O)CC3)cc2)C1)c1cccc2ccccc12` [Compound 1146, 1-{4-[(1S,3S)-3-((R)-1-Naphthalen-1-yl-ethylamino)-cyclohexyl]-benzoyl}-piperidine-4-carboxylic acid], the pIC50 in data set [1] is 4.80. In addition, in data set [2], the PTH suppression was 84% and the “Suppression of Ca^2+” value is recorded as 0%.
Regarding `C[C@@H](N[C@H]1CC[C@@H](c2ccc(OCC(=O)O)cc2)C1)c1cccc2ccccc12` [Compound 1186, {4-[(1R,3S)-3-((R)-1-Naphthalen-1-yl-ethylamino)-cyclopentyl]-phenoxy}-acetic acid], in data set [1], the pIC50 was 4.30. In data set [2], the PTH suppression is 98%, the “Suppression of Ca^2+” value is reported as 6% and the ED50 was 0.04 mg/kg. Besides, the ED50 in data set [3] was roughly 0.3 mg/kg.
Take `C[C@@H](NC1CC[C@H](c2ccc(C(=O)O)cc2)C1)c1cccc2ccccc12` (stereo partly drawn) [Compound 1338, 4-[3-((R)-1-Naphthalen-1-yl-ethylamino)-cyclopentyl]-benzoic acid]: the negative-log IC50 (pIC50) in data set [1] was 4.00. For the same molecule, in data set [2], the PTH suppression stood at 85% and the “Suppression of Ca^2+” value is recorded as 29%.

What is called pIC50 is −log10 of the IC50, conventionally taken in molar units. As usually defined, the ED50 is the dose that gives a 50% effect, or the effect in half of the subjects.
